Data taken from patent US9555024B2, “Substituted (E)-N′-(1-phenylethylidene)benzohydrazide analogs as histone demethylase inhibitors” (University of Utah Research Foundation, priority 2011, dated 2017).

Columns and labels:
MAO B = MAO B (Homo sapiens (Human), UniProt P27338); test: Monoamine Oxidase assay (MAO-Glo Assay Kit); details: result in words
T-47D cells = test: Cell Viability Assay (ATPlite); format: cell-based; details: Homo sapiens, T47D, 96-hours of incubation, read-out: Cell Growth, IC50
Method: Cells were cultured according to the procedures provided. […] Cells were cultured at 37° C. and 5% CO2.
Cell viability was determined using ATPlite™ Luminescence Assay System (PerkinElmer Inc., Waltham, Mass.) using the various cell-lines described above and in Table 4. Briefly, cells were seeded in 96-well plates and then treated with different concentrations of inhibitor (0.1% final DMSO concentration). After 96-hours of incubation, ATPlite detection reagent was added directly to the culture well. Luminescence was read 5 minutes later on an Envision microplate reader.
(§1) IC50 values are determined using GraphPad Prism 5 software. The data were entered as an X-Y plot into the software as percent inhibition for each concentration of the drug. The concentration values of the drug were log transformed and the nonlinear regression was carried out using the “sigmoidal dose-response (variable slope)” option within the GraphPad software to model the data and calculate IC50 values.

heme oxygenase (HMOX) = test: Real-Time PCR of heme oxygenase (HMOX) expression in T-47D cells; format: cell-based, human; details: normalized to HPRT and β-actin
Method: Briefly, T-47D cells were seeded in 96-well plates and treated with concentrations of inhibitors as indicated. Cell lysates, Reverse transcription, and single color syber green realtime PCR was performed using the Cells-to-Ct kit (Life Technologies). Transcript levels of heme oxygenase (HMOX) were normalized to hypoxanthine phosphoribosyltransferase (HPRT) and β-actin.

MAO A = MAO A (Homo sapiens (Human), UniProt P21397); test: Monoamine Oxidase assay (MAO-Glo Assay Kit); details: result in words
MAO A, sequence (P21397 whole entry): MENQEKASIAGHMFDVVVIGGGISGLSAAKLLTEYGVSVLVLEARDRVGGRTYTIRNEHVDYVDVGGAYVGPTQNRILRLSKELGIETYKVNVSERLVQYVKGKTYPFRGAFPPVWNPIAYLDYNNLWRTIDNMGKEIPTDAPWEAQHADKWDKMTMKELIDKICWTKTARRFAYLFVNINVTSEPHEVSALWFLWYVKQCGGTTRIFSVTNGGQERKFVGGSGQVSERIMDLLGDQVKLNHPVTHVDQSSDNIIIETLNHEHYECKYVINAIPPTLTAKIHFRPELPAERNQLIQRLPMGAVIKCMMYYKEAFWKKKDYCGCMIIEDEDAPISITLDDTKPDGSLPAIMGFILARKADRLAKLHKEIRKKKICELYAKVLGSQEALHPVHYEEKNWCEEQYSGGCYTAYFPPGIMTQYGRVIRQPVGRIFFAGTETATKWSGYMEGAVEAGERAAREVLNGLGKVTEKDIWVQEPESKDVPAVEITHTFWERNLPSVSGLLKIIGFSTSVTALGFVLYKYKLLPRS
Method: Recombinant (expressed in baculovirus infected BTI insect cells) monoamine oxidase A and monoamine oxidase B (Catalog No. M7316 and M7441, respectively) were purchased from Sigma-Aldrich Co. LLC. […] MAO-Glo™ Assay Kit was purchased from Promega Corporation (Madison, Wis.).
Briefly, 6.25 μL of test compound was added to each well of a 384-well plate. Enzyme (either MAO A or B) was added (12.5 μL in 2× buffer containing 1 μg protein) and allowed to incubate for 5 minutes. Finally, 6.25 μL of 4×MAO substrate was added to each well. Following a one hour incubation, 25 μL of Luciferin detection reagent was added to each well, and incubated for 20 minutes. Luminescence was then measured on an Envision microplate reader.
as §1

MAO B, sequence (P27338 whole entry): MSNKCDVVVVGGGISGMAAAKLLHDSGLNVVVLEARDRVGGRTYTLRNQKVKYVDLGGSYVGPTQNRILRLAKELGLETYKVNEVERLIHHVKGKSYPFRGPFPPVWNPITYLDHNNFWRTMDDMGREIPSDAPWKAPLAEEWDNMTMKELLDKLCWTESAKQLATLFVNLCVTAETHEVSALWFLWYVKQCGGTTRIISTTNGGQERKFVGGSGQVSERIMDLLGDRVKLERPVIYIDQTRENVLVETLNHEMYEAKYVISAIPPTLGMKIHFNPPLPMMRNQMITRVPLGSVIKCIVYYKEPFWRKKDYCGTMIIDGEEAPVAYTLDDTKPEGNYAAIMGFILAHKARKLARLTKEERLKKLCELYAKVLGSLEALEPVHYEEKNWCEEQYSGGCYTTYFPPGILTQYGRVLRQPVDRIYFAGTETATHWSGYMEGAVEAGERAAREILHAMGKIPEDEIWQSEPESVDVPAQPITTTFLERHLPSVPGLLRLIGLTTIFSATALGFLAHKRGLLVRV

Row | SMILES | activity against MAO B (MAO B) | IC50 (T-47D cells) [µM] | HMOX expression (fold-induction) (heme oxygenase (HMOX)) | activity against MAO A (MAO A)
1 | O=C(N/N=C/c1ccccc1O)c1ccc(O)cc1 [Compound 1] | comparable activity to tranylcypromine |  |  | 
2 | C/C(=N\NC(=O)c1ccccc1)c1c(O)cccc1O [Compound 14] |  | > 10 | 1.1 | 
3 | N[C@@H]1CC1c1ccccc1 (some centres unmarked) [tranylcypromine, reference compound] | exhibited activity |  |  | exhibited activity
